Laboratory results: patent US20240277695A1, “FOXO INHIBITORS FOR USE IN THE TREATMENT OF DISEASES CAUSED BY ABNORMAL PROCESSING OF TDP-43 AND/OR FUS PROTEINS” (Administración General de la Comunidad Autónoma de Euskadi, priority 2020, published 2024)
Entries after “also recorded” stand apart in the source; their conditions may differ.

Legend:
[1] = system: shTDP-43-treated myoblasts; assay: Glu/Asp and Glu/Gln metabolite ratios by HPLC-MS and 1H-NMR in silenced myoblasts; format: cell-based, human; conditions: 30 nM
Description: One of the key endogenous factors that keep glycolytic flux ongoing is cytosolic NAD^+. In anaerobic muscles, malate-aspartate and glycerol-phosphate shuttles as well as glutaminolysis are main metabolic pathways that recycle cytosolic NAD+to support glycolysis (FIG. 3A). […] With respect malate-aspartate shuttle and glutaminolysis, TDP-43 silencing led to reduced levels of OGC1 (oxoglutarate carrier 1), GOT1 (glutamic-oxaloacetic transaminase), MDH1 (malate dehydrogenase), and ME1 (malic enzyme), but increased levels of glutaminase (FIG. 3B). […] We have also analyzed intermediate metabolites of malate-aspartate shuttle and glutaminolysis, including glutamate (Glu), glutamine (Gln) and aspartate (Asp), by means of HPLC-MS and ^1H-NMR, and calculated the ratios Glu/Asp and Glu/Gln to estimate fluxes of these reactions. […] In this sense, an abnormal glutaminolysis may account for the defects of NAD^+ recycling in FUS-silenced myoblasts.
We next explored the consequences of pharmacological or genetic inhibition of FoxO on metabolism and myogenesis in TDP-43 and FUS-silenced myoblasts. We treated all the different models of myoblasts with the compound AS1842856 at 30 nM during proliferation and let them differentiate, adding the compound at the same concentration every 2 days for 8 days. […]

[2] = system: iTbph^pkk(108254) Drosophila model; assay: Adult pharate lethality / pupa eclosion assay; format: in vivo; conditions: 30 μM
Description: FIG. 8. […] A) Number of total pupas and the eclosioned ones were counted in different 5 tubes each group. […] T-test was performed ***p<0,001. Values are expressed as percentage mean+SD.
As mentioned in Example 6, iTbph^pkk(108254) Drosophila completed the metamorphosis from larvae to adult within the pupa (a phase known as pharate), but were not able to eclode from the pupa and, consequently, died. This feature is termed as adult pharate lethality and allowed us to perform assays with which to judge the efficacy of FoxO inhibition.

MYOD = MYOD expression in silenced myoblasts; format: cell-based, human; conditions: 30 nM; shTDP-43 and shFUS-treated myoblasts
Description: Myoblasts treated with control shRNA differentiated and formed MYHC-positive myotubes 2 days after reaching 100% confluence (FIG. 1I). However, TDP-43 and FUS knockdown affected the natural capacity of cultured myoblasts to fuse and form myotubes: shTDP-43-treated myoblasts remained undifferentiated for at least 2 days after reaching 100% confluence, and shFUS-treated myoblasts formed fewer myotubes (FIG. 1I). […] We then analyzed levels of MYOD and MYOG (Myogenin), two transcription factors that are required for myoblast commitment, differentiation and fusion, respectively.
In addition, treatment with the AS1842856 inhibitor modifies the expression of some of the FoxO-regulated genes that are crucial for proper myogenic differentiation.

[3] = system: Caz or Tbph-silenced flies; assay: Longevity assay in flies with muscle-conditioned silencing of Caz or Tbph; format: in vivo, Drosophila melanogaster; conditions: 30 μM, particularly iCaz and iTbph^attp40
Description: (§1) FIG. 7. Foxo inhibition improves muscle function and lifespan in Drosophila flies with muscle-conditioned deficiency of TDP-43 or FUS. […] F, Caz or Tbph-silenced flies have reduced survival times, as indicated by Kaplan-Meier curves (left panel) and median lifespan (right panel) (n=100 flies per group). […] This effect was particularly noticeable in iCaz and iTbph^attp40) fly lines (n=100 flies per group). *p<0.05: **p<0.01, ***p<0.001.
We performed longevity assays to further characterize these fly models. Either of the Caz or Tbph-silenced flies manifested dramatic reductions of survival times when compared to control group, as indicated by Kaplan-Meier curves and median lifespan (FIG. 7F). […] This effect was particularly noticeable in iCaz and iTbph^attp40 fly lines (FIG. 7G).

[4] = system: TDP-43 or FUS-silenced human immortalized myoblasts (cell line 8220); assay: Metabolic flux analysis (ECAR/OCR) in TDP-43 or FUS-silenced myoblasts; format: cell-based; conditions: 30 nM
Description: The translocation of TDP-43 to cytoplasm is involved in myoblast differentiation and myotube generation (see reference 14). […] Thus, given the potential implication of TDP-43 and FUS in myogenesis, we modelled the loss-of-function of these genes in the human immortalized myoblast cell line 8220 by treating these cells with shRNA-expressing lentiviral particles for TDP-43 or FUS, and further analyzed any change on cell morphology, growth and myogenic capacity (FIG. 1D).
Molecular signaling factors and reprogramming of energy metabolism are considered crucial regulators of myogenesis during adult muscle regeneration. Since TDP-43 controls skeletal muscle glucose homeostasis, we wanted to investigate whether myogenic defects induced by loss of TDP-43, and in extension of FUS, may be mediated by abnormalities of glucose metabolism. Regarding the latest, various studies conducted in Drosophila, zebrafish and mouse myoblasts have highlighted glucose metabolism as part of the core myogenic program because of its ability to provide both the rapid source of energy and the building blocks (amino acids and nucleotides) that are required for biomass production during the formation of syncytial muscles. […]

[5] = system: control Drosophila strain UAS-Dicer2-+-Mef2-GAL4; assay: Climbing assay and lifespan of treated control flies; format: in vivo, Drosophila melanogaster; conditions: 30 μM
Description: as §1
After knowing that FoxO inhibition provides benefits to muscle cells in vitro, we wanted to further test the effects of targeting FoxO factors on muscle function under the context of TDP-43 or FUS loss-of-function in vivo. To that purpose, we generated various Drosophilamodels with muscle-conditioned silencing of either Cabeza (Caz) or Tbph genes, which are orthologs of human FUS or TARDBP, respectively. […] Drosophila has only one ortholog for mammalian FoxO factors, which is called foxo. Although the affinity of AS1842856 for Drosophila foxo has never been tested, the fact that FoxO DNA-binding sites, with which the inhibitor interacts, are well conserved among species, including Drosophila melanogaster (FIG. 7B) provides enough rationale to test its efficacy in Drosophila models.

SMILES: CCn1cc(C(=O)O)c(=O)c2c(N)c(F)c(NC3CCCCC3)cc21 [AS1842856]
- Glu/Asp ratio [1]: increase Glu/Asp ratio to the levels of control myoblasts
- Glu/Gln ratio [1]: without affecting Glu/Gln ratio
- eclosion efficiency of pupas ([2]; UAS-Dicer2-iTbph^pkk(108254)-Mef2-GAL4): significantly ameliorates
- pharate lethality in control flies ([2]; control flies): did not produce pharate lethality
- mitigation of pharate lethality ([2]; iTbph^pkk(108254) Drosophila): approximately 20%
- expression of MYOD (MYOD): increased the expression of MYOD
- survival (Kaplan-Meier, median lifespan) [3]: higher survival rates
- repressed glycolytic traits (glucose- and oligomycin-stimulated ECAR) ([4]; proliferating myoblasts silenced for either TDP-43 or FUS): significant recovery
- mitochondrial ATP production ([4]; shTDP-43 and shFUS-treated myoblasts): enhanced mitochondrial ATP production; also recorded: improved the mitochondrial ATP production
- toxicity on lifespan [5]: lack of toxicity
- toxicity on motor function [5]: lack of toxicity
